Measured values reported in PMC7069095, “A cell-permeable peptide-based PROTAC against the oncoprotein CREPT proficiently inhibits pancreatic cancer” (Theranostics, 2020).
Non-standard residues stand in square brackets, D forms with d. Residues, ends and D or L forms follow the SMILES beside them. No end group written: not given here. *: point of attachment. FITC = O=C1OC2(c3ccc(O)cc3Oc3cc(O)ccc32)c2ccc(NC(=S)*)cc21; Hyp = O=C(O)[C@@H]1C[C@@H](O)CN1; Cbz = O=C(OCc1ccccc1)*; Ahx = NCCCCCC(=O)O

What was measured:
[1] = target: T1, endogenous CREPT protein in Panc-1 cells (Homo sapiens, UniProt Q9NQG5); assay: Western blot of endogenous CREPT (degradation); format: cell-based; conditions: 24 h incubation with 10 μM PRTC
T1 construct: endogenous protein level of CREPT in Panc-1, AsPc-1 and MIA-PaCa-2 cells; endogenous in cells; host or cells: Panc-1, AsPc-1, MIA PaCa-2
T1 sequence (Q9NQG5 1-326): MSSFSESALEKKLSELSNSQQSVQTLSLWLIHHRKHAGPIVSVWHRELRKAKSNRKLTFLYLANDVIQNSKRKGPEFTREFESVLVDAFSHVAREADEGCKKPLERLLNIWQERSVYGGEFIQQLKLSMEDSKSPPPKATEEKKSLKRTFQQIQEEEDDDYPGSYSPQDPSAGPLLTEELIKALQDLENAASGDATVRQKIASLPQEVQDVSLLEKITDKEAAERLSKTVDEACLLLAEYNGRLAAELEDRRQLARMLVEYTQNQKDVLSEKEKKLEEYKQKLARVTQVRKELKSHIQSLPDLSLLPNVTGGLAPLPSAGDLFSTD
Description: (§1) For exogenous immunoprecipitation assays, HEK293T cells were plated in 60 mm dishes and then transfected with the indicated plasmids. After 24 h, cells were harvested using RIPA buffer (50 mM Tris-HCl pH 8.0, 2 mM EDTA pH 8.0, 150 mM NaCl, 1% NP-40, 0.5% sodium deoxycholate, 0.1% SDS) with mixed protease inhibitors. Cell lysates were incubated with 2 μg of the indicated antibodies and 30 μL of protein A/G-Sepharose beads at 4 °C overnight. Beads were eluted five times with lysis buffer (50 mM Tris-HCl pH 7.6, 1 mM EDTA pH 8.0, 165 mM NaCl, 0.5% NP-40), and thereafter, a western blot assay was performed to analyze the association by using the indicated antibodies. Western blot was performed as previously reported. Anti-β-actin and anti-Flag antibodies were purchased from Sigma. Anti-Myc antibody was purchased from Santa Cruz Biotechnology. Antibody against CREPT was produced in the laboratory.
To address whether PRTC could induce CREPT degradation, we examined the endogenous protein level of CREPT in Panc-1, AsPc-1 and MIA-PaCa-2 cells in the presence of different dosages of PRTC. […] Consistently, treatment with PRTC led to decreases in CREPT protein at different times (Figure 5B, S3A). […] To further visualize the degradation process, we stained the endogenous CREPT protein with an antibody against CREPT in the cells treated with FITC-labeled PRTC.
Figure 5 PRTC induces the ubiquitination and proteasome- dependent degradation of the endogenous CREPT protein. (A) Immunoblot of CREPT following 24 h incubation with different dosages of PRTC or PRTC-m in Panc-1 cells. (B) Immunoblot of CREPT exposed to 10 μM PRTC or PRTC-m for different times in Panc-1 cells. (C) Western blot analysis of CREPT following 24 h incubation with 10 μM PTRC in Panc-1 cells. MG132 is an inhibitor of proteasome activity. (D) Immunofluorescence visualization of Panc-1 cells after treatment with PRTC for 24 h. Cells were stained with anti-CREPT antibody. Scale bars, 20 μm.

Panc-1 cells [2] = assay: Confocal fluorescence imaging of FITC labeled peptides in cells; format: cell-based; conditions: confocal microscope, 10 μM FITC labeled peptides, Panc-1 cells
Description: (§2) To examine whether PRTC could permeate into pancreatic cancer cells, we synthesized fluorescein isothiocyanate (FITC) labeled PRTC, PRTC-m, PRTC-v, PRTC-r (PRTC without RRRRK) as well as TAT (a widely used cell penetrating peptide, as a positive control).
(§3) Figure 3 Identification of the permeability of PRTC in Panc-1 cells. (A) Entry of FITC- labeled peptides into Panc-1 cells tested by flow cytometry. FITC-TAT is the positive control. Measurements were performed in triplicate. (B) Quantification of cellular uptake of Panc-1 cells treated with different concentrations of FITC-PRTC. (C) Confocal microscope images of Panc-1 cells treated with 10 μM FITC labeled peptides. Scale bars, 10 μm. (D) Confocal microscope images of Panc-1 cells treated with different dosages of FITC-PRTC. Scale bars, 10 μm.

Panc-1 cells [3] = assay: Flow cytometry, entry of FITC-labeled peptides into cells; format: cell-based; conditions: flow cytometry, FITC-labeled peptides, 10 μM, Panc-1 cells, triplicate; in comparison with PRTC, PRTC-m or PRTC-v
Description: as §2, §3

Myc-CREPT and Myc-CCT = assay: Exogenous IP experiment in HEK293T cells; format: binding; conditions: GST-tagged CREPT ligand
Description: as §1

Flag-CREPT = target: T2, Flag-CREPT (Homo sapiens, UniProt Q9NQG5); assay: GST pull-down; format: binding; conditions: GST-tagged proteins purified from mammalian (HEK293T) cells
T2 construct: expressed in transfected cells; host or cells: HEK293T
T2 sequence (Q9NQG5 1-326): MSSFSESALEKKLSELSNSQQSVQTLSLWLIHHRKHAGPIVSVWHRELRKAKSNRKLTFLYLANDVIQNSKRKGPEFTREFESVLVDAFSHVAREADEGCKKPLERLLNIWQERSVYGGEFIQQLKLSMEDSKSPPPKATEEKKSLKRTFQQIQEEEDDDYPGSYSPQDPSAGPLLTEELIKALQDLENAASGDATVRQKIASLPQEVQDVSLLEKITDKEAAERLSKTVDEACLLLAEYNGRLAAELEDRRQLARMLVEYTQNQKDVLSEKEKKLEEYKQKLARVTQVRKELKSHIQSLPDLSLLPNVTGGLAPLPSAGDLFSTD
Description: HEK293T cells were plated in 100 mm dishes and then transfected with the indicated plasmids. After 24 h, cells were harvested using RIPA buffer with mixed protease inhibitors. Cell lysates were incubated with 30 μL of GST-tagged Sepharose beads and 10 μg of purified proteins from either E. coli or HEK293T cells at 4 °C overnight. Beads were eluted five times with lysis buffer. Western blot was performed using an antibody against GST (Cell Signaling Technology) to analyze the association.

CC(C)C[C@@H](C=O)NC(=O)[C@H](CC(C)C)NC(=O)[C@H](CC(C)C)NC(=O)OCc1ccccc1 [MG132, reference compound] (Cbz-Leu-Leu-Leu-aldehyde)
effect on PRTC-induced CREPT degradation [1]: completely abolished

CC[C@H](C)[C@H](NC(=O)CCCCCNC(=S)Nc1ccc2c(c1)C(=O)OC21c2ccc(O)cc2Oc2cc(O)ccc21)C(=O)N[C@@H](Cc1ccc(O)cc1)C(=O)N1C[C@H](O)C[C@H]1C(=O)N[C@@H](C)C(=O)N[C@@H](CC(C)C)C(=O)NCCCCCC(=O)N[C@@H](CCCCN)C(=O)N[C@@H](CC(=O)O)C(=O)N[C@H](C(=O)N[C@@H](CC(C)C)C(=O)N[C@@H](CO)C(=O)N[C@@H](CCC(=O)O)C(=O)N[C@@H](CCCCN)C(=O)N[C@@H](CCC(=O)O)C(=O)N[C@@H](CCCCN)C(=O)N[C@@H](CCCCN)C(=O)N[C@@H](CC(C)C)C(=O)N[C@@H](CCC(=O)O)C(=O)N[C@@H](CCC(=O)O)C(=O)N[C@@H](Cc1ccc(O)cc1)C(=O)N[C@@H](CCCCN)C(=O)N[C@@H](CCC(N)=O)C(=O)N[C@@H](CCCCN)C(=O)N[C@@H](CC(C)C)C(=O)N[C@@H](C)C(=O)N[C@@H](CCCNC(=N)N)C(=O)N[C@H](C(=O)O)C(C)C)C(C)C [FITC-PRTC-r] ({FITC-Ahx}-IY[Hyp]AL[Ahx]KDVLSEKEKKLEEYKQKLARV-OH)
localization of FITC labeled peptides in the cells (Panc-1 cells [2]): very weak localization

IYP (OH) AL-AHX-KDVLSEKEKKLEEYKQKLARV [PRTC-r, PRTC without RRRRK]
fluorescence intensity in the cells (cell entry) (Panc-1 cells [3]): obviously decreased

FITC-AHX-KDVLSEKEKKLEEYKQKLARV-RRRRK [FITC-PRTC-v, FITC labeled PRTC-v]
localization of FITC labeled peptides in the cells (Panc-1 cells [2]): strong localization

GST-CL: GST protein tagged with CREPT ligand (CL) (KDVLSEKEKKLEEYKQKLARV; also: GST tag, end not given here)
binding in exogenous IP (Myc-CREPT and Myc-CCT): strongly binds | pull down of Flag-CREPT in vitro (Flag-CREPT): able to pull down
